This note sets out measurements from patent US8791118B2, “Pyridopyrazines as highly selective ras-Raf-Mek-Erk signal transduction pathway inhibitors” (Aeterna Zentaris GmbH, priority 2011, dated 2014).

Broadly, the IC50 is the concentration at which inhibition is half-maximal. Read a high IC50 as weaker potency. As a reminder, the melting point is the temperature of the solid-liquid transition.

The target of one data set is Erk2 (Homo sapiens, UniProt P28482). Put plainly: Erk2 alpha kinase assay (cell-free, ALPHA technology). Format: biochemical. The settings on record: 10 μM ATP. Here is the method:
The inhibitory effect of the compounds according to the invention was tested on various serine/threonine, tyrosine and lipid kinases in enzymatic assays. Recombinant human kinases such as, for example, Erk2, were used in this case, partly as full-length kinases, partly as shortened fragments, but at least consisting of the functional kinase domains. The commercial kinase proteins (Proqinase, Upstate) were used as recombinant fusion proteins with GST (glutathion-S-transferase) or His-Tag. Depending on the type of substrate, the various kinase reactions were quantified by means of suitable ALPHA™ beads (Perkin-Elmer). The substance testing is described in detail hereinafter for the Erk assay. […] a) MAPK-ALPHAs (e.g. […] The fluorescence was detected the following morning in a Envision plate reader (Perkin-Elmer). The %-inhibition values per substance concentration were calculated by means of the following formula from the raw data determined in the Envision plate reader[…]: Eight determinations were made for each control and two for the substance samples. […] The IC50 values were determined using GraphPadPrism.

Sequence of Erk2 (P28482 2-360 limits assumed): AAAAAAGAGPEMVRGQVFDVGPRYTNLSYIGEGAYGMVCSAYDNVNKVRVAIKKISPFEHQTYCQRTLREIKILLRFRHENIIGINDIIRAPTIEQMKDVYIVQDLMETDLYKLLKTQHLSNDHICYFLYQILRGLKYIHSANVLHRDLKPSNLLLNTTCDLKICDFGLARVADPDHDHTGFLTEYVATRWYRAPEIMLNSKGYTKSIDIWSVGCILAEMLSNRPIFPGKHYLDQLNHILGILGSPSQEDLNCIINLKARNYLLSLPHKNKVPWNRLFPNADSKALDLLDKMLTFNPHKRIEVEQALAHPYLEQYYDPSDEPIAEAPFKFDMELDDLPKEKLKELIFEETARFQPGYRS

Molecule `COc1c(CO)cccc1-c1cnc2ccc(NC(=O)N[C@H](C)CCCc3ccccc3)nc2n1` [Compound 158, 1-[3-(3-Hydroxymethyl-2-methoxy-phenyl)-pyrido[2,3-b]pyrazin-6-yl]-3-((R)-1-methyl-4-phenyl-butyl)-urea] displayed a melting point of 168 to 170 °C. This molecule registered an IC50 on Erk2 of 1 nM.
In the case of `C[C@H](CCCc1ccccc1)NC(=O)Nc1ccc2ncc(N3CCCC3)nc2n1` [Compound 173, 1-((R)-1-Methyl-4-phenyl-butyl)-3-(3-pyrrolidin-1-yl-pyrido[2,3-b]pyrazin-6-yl)-urea], the melting point lay in the range of 187 to 190 °C. This molecule also yielded an IC50 against Erk2 of 5 nM.
With `C[C@H](CCCc1ccccc1)NC(=O)Nc1ccc2ncc(-c3ccncc3)nc2n1` [Compound 157, 1-((R)-1-Methyl-4-phenyl-butyl)-3-(3-pyridin-4-yl-pyrido[2,3-b]pyrazin-6-yl)-urea], the melting point fell in the range of 223 to 226 °C. Further, the IC50 against Erk2 stood at 2 nM.
`COc1ncccc1-c1cnc2ccc(NC(=O)N[C@H](C)CCCc3ccccc3)nc2n1` [Compound 161, 1-[3-(2-Methoxy-pyridin-3-yl)-pyrido[2,3-b]pyrazin-6-yl]-3-((R)-1-methyl-4-phenyl-butyl)-urea] gave a melting point of 161 to 163 °C. Half-maximal inhibition against Erk2 (IC50) required 2 nM.
Take `C[C@H](CCCc1ccccc1)NC(=O)Nc1ccc2ncc(-c3cn[nH]c3)nc2n1` [Compound 171, 1-((R)-1-Methyl-4-phenyl-butyl)-3-[3-(1H-pyrazol-4-yl)-pyrido[2,3-b]pyrazin-6-yl]-urea]: the melting point lay in the range of 274 to 276 °C. At Erk2, this molecule showed an IC50 of 4 nM.
In the same order, the values of `C[C@H](CCCc1ccccc1)NC(=O)Nc1ccc2ncc(-c3cccc(C(=O)O)c3)nc2n1` [Compound 196, 3-{6-[3-((R)-1-Methyl-4-phenyl-butyl)-ureido]-pyrido[2,3-b]pyrazin-3-yl}-benzoic acid] are 261 °C (dec.) and 4 nM.
In the same order, the values of `C[C@H](CCCc1ccccc1)NC(=O)Nc1ccc2ncc(N3CCOCC3)nc2n1` [Compound 166, 1-((R)-1-Methyl-4-phenyl-butyl)-3-(3-morpholin-4-yl-pyrido[2,3-b]pyrazin-6-yl)-urea] are 201 to 203 °C and 3 nM.
For `O=C(NCCCCc1ccccc1)Nc1ccc2ncc(-c3cccc(C(=O)O)c3)nc2n1` [Compound 198, 3-{6-[3-(4-Phenyl-butyl)-ureido]-pyrido[2,3-b]pyrazin-3-yl}-benzoic acid], the melting point lay within 254 to 256 °C. The molecule further registered an IC50 against Erk2 of 3 nM.
